Test results from the NIST ThermoML archive (doi:10.1016/j.jct.2018.12.019).

Key:
[1] = xn = mol fraction of the nth substance listed; conditions: 98 kPa, Liquid; for speed of sound: Frequency=3 MHz, Single path-length method; for mass density: Vibrating tube method
[2] = excess molar enthalpy (molar enthalpy of mixing); xn = mol fraction of the nth substance listed; conditions: 298.15 K, 98 kPa, Liquid, Calvet calorimetry

Cn1ccnc1 [1-methylimidazole] + CC(C)O
[1]
Conditions | mass density, 288.15 K [kg/m3] | mass density, 298.15 K [kg/m3] | mass density, 308.15 K [kg/m3] | mass density, 318.15 K [kg/m3] | mass density, 328.15 K [kg/m3] | speed of sound, 288.15 K [m/s] | speed of sound, 298.15 K [m/s] | speed of sound, 308.15 K [m/s] | speed of sound, 318.15 K [m/s] | speed of sound, 328.15 K [m/s]
x1 = 0.0508 | 803.32 | 794.92 | 786.26 | 777.31 | 767.99 | 1199.2 | 1164 | 1128.7 | 1093.2 | 1057.4
x1 = 0.1043 | 817.79 | 809.32 | 800.63 | 791.7 | 782.45 | 1224.9 | 1189.6 | 1154.6 | 1118.7 | 1083
x1 = 0.2003 | 843.18 | 834.63 | 825.91 | 817 | 807.86 | 1268.9 | 1233.4 | 1197.9 | 1162.5 | 1127.2
x1 = 0.3007 | 869.37 | 860.76 | 852.02 | 843.13 | 834.07 | 1313.8 | 1278.4 | 1242.9 | 1207.7 | 1172.6
x1 = 0.405 | 896.25 | 887.59 | 878.83 | 869.96 | 860.95 | 1360.7 | 1325.3 | 1289.7 | 1254.5 | 1219.5
x1 = 0.5046 | 921.64 | 912.93 | 904.15 | 895.28 | 886.27 | 1406.8 | 1371.1 | 1335.5 | 1300.1 | 1265
x1 = 0.6006 | 945.55 | 936.79 | 927.97 | 919.09 | 910.11 | 1451.7 | 1415.7 | 1379.6 | 1344 | 1308.6
x1 = 0.7034 | 970.8 | 962 | 953.15 | 944.24 | 935.27 | 1500.7 | 1464.1 | 1427.7 | 1391.6 | 1355.8
x1 = 0.8029 | 994.49 | 985.66 | 976.78 | 967.86 | 958.89 | 1547.2 | 1510.2 | 1473.3 | 1436.7 | 1400.5
x1 = 0.9031 | 1017.75 | 1008.9 | 1000.03 | 991.11 | 982.15 | 1592.8 | 1555.5 | 1518.1 | 1481.2 | 1444.6
x1 = 0.9536 | 1029.16 | 1020.32 | 1011.45 | 1002.55 | 993.6 | 1614.9 | 1577.5 | 1540 | 1502.9 | 1466.2
x1 = 1 | 1039.36 | 1030.52 | 1021.66 | 1012.76 | 1003.83 | 1634.1 | 1596.5 | 1559 | 1521.8 | 1485

[2]
Conditions | excess molar enthalpy [kcal/mol]
x1 = 0.0518 | -0.0112
x1 = 0.1082 | -0.0304
x1 = 0.1974 | -0.0511
x1 = 0.2924 | -0.0734
x1 = 0.3342 | -0.0793
x1 = 0.3969 | -0.0848
x1 = 0.4954 | -0.0899
x1 = 0.5926 | -0.0846
x1 = 0.7041 | -0.0719
x1 = 0.798 | -0.0519
x1 = 0.8831 | -0.0294
x1 = 0.9538 | -0.0143
x1 = 1 | 0

Cn1ccnc1 [1-methylimidazole] + CO
[1]
Conditions | mass density, 288.15 K [kg/m3] | mass density, 298.15 K [kg/m3] | mass density, 308.15 K [kg/m3] | mass density, 318.15 K [kg/m3] | mass density, 328.15 K [kg/m3] | speed of sound, 288.15 K [m/s] | speed of sound, 298.15 K [m/s] | speed of sound, 308.15 K [m/s] | speed of sound, 318.15 K [m/s] | speed of sound, 328.15 K [m/s]
x1 = 0.0507 | 822.81 | 813.46 | 804.03 | 794.49 | 784.81 | 1185.2 | 1151.8 | 1118.6 | 1085.8 | 1053.3
x1 = 0.1009 | 846.62 | 837.31 | 827.92 | 818.41 | 808.78 | 1230.7 | 1196.9 | 1163.2 | 1130 | 1097.2
x1 = 0.1961 | 884.53 | 875.26 | 865.91 | 856.48 | 846.92 | 1305.4 | 1270.8 | 1236.4 | 1202.4 | 1168.7
x1 = 0.296 | 918.09 | 908.87 | 899.58 | 890.21 | 880.75 | 1374 | 1338.8 | 1303.7 | 1268.9 | 1234.5
x1 = 0.3988 | 946.5 | 937.33 | 928.11 | 918.82 | 909.45 | 1434.1 | 1398.4 | 1362.7 | 1327.4 | 1292.4
x1 = 0.5058 | 969.95 | 960.86 | 951.71 | 942.51 | 933.23 | 1484.7 | 1448.5 | 1412.4 | 1376.6 | 1341.1
x1 = 0.6096 | 989.14 | 980.11 | 971.04 | 961.92 | 952.74 | 1526.2 | 1489.6 | 1453 | 1416.8 | 1380.9
x1 = 0.7023 | 1003.69 | 994.72 | 985.72 | 976.66 | 967.55 | 1558 | 1521.2 | 1484.3 | 1447.8 | 1411.7
x1 = 0.8018 | 1017.21 | 1008.3 | 999.35 | 990.36 | 981.32 | 1587.5 | 1550.4 | 1513.3 | 1476.5 | 1440.5
x1 = 0.8994 | 1028.89 | 1020.02 | 1011.12 | 1002.18 | 993.19 | 1612.9 | 1575.6 | 1538.2 | 1501.2 | 1464.5
x1 = 0.951 | 1034.48 | 1025.61 | 1016.76 | 1007.87 | 998.91 | 1625 | 1587.6 | 1550.1 | 1513 | 1476.2
x1 = 1 | 1039.36 | 1030.52 | 1021.66 | 1012.76 | 1003.83 | 1634.1 | 1596.5 | 1559 | 1521.8 | 1485
